Reference: patent US8202889B2, “Inhibitors of bacterial IMPDH” (Vertex Pharmaceuticals Incorporated, priority 2005, dated 2012)

Key:
E. coli IMPDH enzyme = E. coli IMPDH enzyme (Escherichia coli, UniProt P0ADG7); experiment: IMPDH Activity Inhibition Assay; assay type: biochemical; settings: for activity at 25 µM: percent remaining activity of E. coli IMPDH enzyme at 25 μM inhibitor (I) and 14 nM enzyme (E); for activity at 10 µM: percent remaining activity of E. coli IMPDH enzyme at 10 μM inhibitor (I) and 55 nM enzyme (E)
Description: IMP dehydrogenase activity was assayed according to the method reported by Hedstrom. [Hedstrom, L. et al., Biochemistry, 39, pp. 9804-9810 (2000), the disclosure of which is herein incorporated by reference]. Table 1 below lists the percent remaining activity of E. coli IMPDH enzyme (E) at either 25 μM inhibitor (I) and 14 nM enzyme (E) or 10 μM inhibitor (I) and 55 nM enzyme (E). “ND” means no data.

bacterial IMPDH = settings: Hedstrom et al., Curr. Med. Chem. 1999; cited from earlier work

E. coli IMPDH enzyme, sequence (P0ADG7 whole entry): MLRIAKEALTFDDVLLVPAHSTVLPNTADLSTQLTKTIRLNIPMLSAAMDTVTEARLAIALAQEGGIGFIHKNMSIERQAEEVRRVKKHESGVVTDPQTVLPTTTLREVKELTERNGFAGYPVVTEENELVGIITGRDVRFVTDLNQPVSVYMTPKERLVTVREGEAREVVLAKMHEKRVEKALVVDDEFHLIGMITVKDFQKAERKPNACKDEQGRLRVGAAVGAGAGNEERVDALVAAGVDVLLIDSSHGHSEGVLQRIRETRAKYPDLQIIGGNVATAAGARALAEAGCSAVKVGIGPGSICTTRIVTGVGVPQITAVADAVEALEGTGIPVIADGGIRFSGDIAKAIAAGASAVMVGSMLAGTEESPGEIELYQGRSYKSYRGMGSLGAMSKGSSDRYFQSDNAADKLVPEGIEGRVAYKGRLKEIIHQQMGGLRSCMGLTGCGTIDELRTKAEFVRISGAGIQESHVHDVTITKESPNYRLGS

Row | Structure (SMILES) | activity at 10 µM (E. coli IMPDH enzyme) [%] | also measured
1 | O=C(Nc1nc2ccccc2[nH]1)c1ccc2cc(C(=O)Nc3nc4ccccc4[nH]3)ccc2c1 [Compound 6] | – | activity at 25 µM (E. coli IMPDH enzyme): 90%
2 | CCOc1cccc2sc(NC(=O)c3cc4ccccc4cc3OC)nc12 [Compound 7] | – | activity at 25 µM (E. coli IMPDH enzyme): 76%
3 | Cc1cccc(NC(=O)c2ccc3cc(C(=O)Nc4cccc(C)n4)ccc3c2)n1 [Compound 8] | 87 | –
4 | COc1cc2ccccc2cc1C(=O)Nc1nc(-c2c(OC)ccc3ccccc23)cs1 [Compound 9] | 100 | –
5 | COc1ccc(-c2csc(NC(=O)c3cc4ccccc4cc3OC)n2)cc1OC [Compound 10] | 73 | –
6 | O=C(Nc1nccs1)c1ccc2cc(C(=O)Nc3nccs3)ccc2c1 [Compound 11] | 97 | –
7 | O=C(Nc1nncs1)c1ccc2cc(C(=O)Nc3nncs3)ccc2c1 [Compound 12] | 100 | –
8 | COc1c(C)c2c(c(O)c1C/C=C(\C)CCC(=O)O)C(=O)OC2 [mycophenolic acid] | – | fold less potent against bacterial IMPDH versus mammalian IMPDH (bacterial IMPDH): > 1000 fold
